The subject of experiment [1] is Leishmania donovani. Nature of the experiment: Intramacrophage Leishmania donovani assay (Assay 1), average number of amastigotes per cell (potency readout). The class given is cell-based. The note with it: THP-1, 96 h, amastigotes in PMA-differentiated THP-1 macrophages, 96 h incubation, read-out: pEC50 value against Leishmania donovani (converted). Here is the method:
Assay 1. Intramacrophage Leishmania donovani Assay
The intramacrophage Leishmania assay was performed using a modified version of the method described in De Rycker et al. (Antimicrob Agents Chemother. 2013 July; 57(7):2913-22. Comparison of a high-throughput high-content intracellular Leishmania donovani assay with an axenic amastigote assay. De Rycker M, Hallyburton I, Thomas J, Campbell L, Wyllie S, Joshi D, Cameron S, Gilbert I H, Wyatt P G, Frearson J A, Fairlamb A H, Gray D W.). Procedure: 350 nl of compound was pre-dispensed into 384 well sterile intermediary plates. For single point screening, amphotericin B was added to all wells of column 24 as a positive control (final concentration 2 μM) and DMSO to column 23. For potency determinations, ten-point, one in three dilution curves were created with the highest concentration being 50 μM and on each plate a control curve of amphotericin B was included. Controls were as follows: columns 11 and 12: DMSO, columns 23 and 24: amphotericin B (final concentration 2 μM). To the intermediary plates, 35 μl of THP-1 media was added and plates were shaken for >5 min to ensure complete mixing. THP-1 cells (8,000 per well, 50 μl) were plated into black clear-bottom 384 well plates (Corning) in presence of 20 nM PMA. After 20 min at RT, the plates were incubated at 37° C. under 5% CO2 in a humidified incubator for 75 h. The cells were then washed with […] sterile phosphate buffered saline (PBS) supplemented with 1 mM CaCl2, 0.5 mM MgCl2, 0.1% (w/v) bovine serum albumin (PBS-A) and amastigotes were added to all wells at a multiplicity of infection of 5 (40,000 amastigotes per well). After 40 min at RT, plates were returned to the incubator. Amastigotes were incubated in the presence of THP-1 macrophages for 16 h. Any remaining extracellular amastigotes were subsequently removed with an overflow wash of 1 mL PBS-A per well (wash buffer is being aspirated from the top of the well as it is being dispensed) followed by addition of 25 μl of the compound pre-dilutions using a Fluidx Ipette-pro pipetting station. The final dilution of each compound was 200-fold. Plates were incubated for 96 h and then washed (250 μl PBS-A) and fixed (4% (v/v) formaldehyde-PBS, 30 min, RT). After fixation, the wells were washed with 250 μl PBS, stained (10 μg/mL DAPI, 0.4 μg mL-1 HCS Cellmask Deep Red in PBS+0.1% (v/v) Triton X-100, 30 min, RT) and washed with 250 μl PBS. Finally, PBS+0.05% (v/v) thimerosal was added to the wells, the plates were sealed and imaged on a high-content microscope (GE IN Cell 2000) using a 10× objective. Image analysis was carried out with GE IN Cell Analyzer 1000 Workstation using the “Multi Target Analysis” module. Settings for segmentation were as follows: nuclei: minimum area: 142.384 μm2, sensitivity: 81, method: top-hat; cells: characteristic area: 2500 μm2, sensitivity: 60, method: multiscale top-hat; organelles (amastigotes): granule size 1-3, 3 scales, sensitivity: 90, detection in entire cell. For each well, i) THP-1 cell count (cytotoxicity readout) and ii) average number of amastigotes per cell (potency readout) were calculated, both in terms of pEC50 values.

Experiment [2] relates to Leishmania donovani. Description: Leishmania donovani intracellular assay (Assay 5). The class given is cell-based. Particulars: THP-1, 96 h, eGFP amastigotes in THP-1 cells, 96 h incubation, read-out: pEC50 value against Leishmania donovani (converted). Here is the method:
Assay 5. Leishmania donovani Intracellular Assay
Compounds were dispensed into black 384-well assay plates (Greiner) by acoustic dispensing (LabCyte ECHO). For potency determinations, eleven-point, one in three dilution curves were generated, with a top concentration of 50 μM. THP-1 human monocytes cells were dispensed in T225 tissue culture flasks and differentiated using 30 nM of PMA, after 24 hours they were infected overnight using Leishmania donovani expressing Green Fluorescent Protein (eGFP) amastigotes in the same T225 tissue culture flasks at a multiplicity of infection of 10. Next, any remaining free amastigotes were washed away with PBS and the infected THP-1 cells were harvested by trypsinisation. The infected cells were then plated into 384-well plates containing the compounds to be tested, at 3000 cells per well in RPMI media with 2% FBS and 25 mM Sodium bicarbonate. After 96 h incubation at 37° C. in presence of 5% CO2, the plates were fixed with 4% formaldehyde for 30 minutes, washed with PBS and stained with 0.1 mg/mL of DAPI for 30 minutes and washed again with PBS. The plates were imaged on a Perkin Elmer Opera high-content imaging system using a 20× air objective with two expositions, one for DAPI stain and other for eGFP. Images were analysed using the Acapella building blocks system (Perkin Elmer). The image analysis algorithm first identified the THP-1 nuclei followed by demarcation of the cytoplasm and identification of intracellular amastigotes. This algorithm reported mean number of parasites per THP-1 cell, the percentage of infected THP-1 cells and the total number of THP-1 cells.

The source of these data is US10479792B2, “Compounds” (GlaxoSmithKline Intellectual Property Development Limited, priority 2015, dated 2019).

Each structure is given as a SMILES string.

As to `O=C(Nc1cccc(-c2ccn3c(N4CCOCC4)cnc3n2)c1)N1CCCC1` [Example 1, N-(3-(3-morpholinoimidazo[1,2-a]pyrimidin-7-yl)phenyl)pyrrolidine-1-carboxamide], the EC50 was 0.251 to 10 µM in the experiment on Leishmania donovani [1] and 0.126 to 10 µM in the experiment on Leishmania donovani [2]. As for `O=C(Nc1ccc(F)c(-c2cnn3c(Br)cnc3n2)c1)N1CCCC1` [Example 6, N-(3-(7-bromoimidazo[1,2-b][1,2,4]triazin-3-yl)-4-fluorophenyl)pyrrolidine-1-carboxamide], the EC50 in the experiment with Leishmania donovani [1] is 0.251 to 10 µM.

Consider `O=C(Nc1ccc(F)c(-c2cnn3c(N4CCOCC4)cnc3n2)c1)N1CCCC1` [Example 8, N-(4-fluoro-3-(7-morpholinoimidazo[1,2-b][1,2,4]triazin-3-yl)phenyl)pyrrolidine-1-carboxamide], for which, in the experiment with Leishmania donovani [1], the EC50 was 0.251 to 10 µM. On the same count and under the same terms, the value for `O=C(Nc1cccc(-c2cnn3c(N4CCOCC4)cnc3n2)c1)N1CCCC1` [Example 9, N-(3-(7-morpholinoimidazo[1,2-b][1,2,4]triazin-3-yl)phenyl)pyrrolidine-1-carboxamide] was 0.251 to 10 µM. As to `O=C(Nc1cccc(-c2cnn3c(-c4ccccc4)cnc3n2)c1)N1CCCC1` [Example 10, N-(3-(7-phenylimidazo[1,2-b][1,2,4]triazin-3-yl)phenyl)pyrrolidine-1-carboxamide], the EC50 with Leishmania donovani [1] is 0.251 to 10 µM. Regarding `O=C(Nc1ccc(F)c(-c2cnn3ccnc3n2)c1)N1CCCC1` [Example 11, N-(4-fluoro-3-(imidazo[1,2-b][1,2,4]triazin-3-yl)phenyl)pyrrolidine-1-carboxamide], the EC50 in the experiment on Leishmania donovani [1] is 12.6 to 20 µM. `Cc1cc(-c2cc(NC(=O)N3CCCC3)ccc2F)nc2ncc(N3CCOCC3)n12` [Example 12, N-(4-fluoro-3-(5-methyl-3-morpholinoimidazo[1,2-a]pyrimidin-7-yl)phenyl)pyrrolidine-1-carboxamide]: the EC50 with Leishmania donovani [1] is 0.251 to 10 µM; in the experiment with Leishmania donovani [2], 0.126 to 10 µM.

On to `CCc1cc(-c2cc(NC(=O)N3CCCC3)ccc2F)nc2ncc(N3CCOCC3)n12` [Example 13, N-(3-(5-ethyl-3-morpholinoimidazo[1,2-a]pyrimidin-7-yl)-4-fluorophenyl)pyrrolidine-1-carboxamide], for which the EC50 in the experiment with Leishmania donovani [1] is 0.251 to 10 µM; in the experiment on Leishmania donovani [2] it was 0.126 to 10 µM. Turning to `Cc1cn2c(N3CCOCC3)cnc2nc1-c1cccc(NC(=O)N2CCCC2)c1` [Example 14, N-(3-(6-methyl-3-morpholinoimidazo[1,2-a]pyrimidin-7-yl)phenyl)pyrrolidine-1-carboxamide], the EC50 in the experiment on Leishmania donovani [1] is > 50.1 µM; in the experiment with Leishmania donovani [2] it was 12.6 to 39.8 µM. For the compound `Cc1cn2c(N3CCOCC3)cnc2nc1-c1cc(NC(=O)N2CCCC2)ccc1F` [Example 15, N-(4-fluoro-3-(6-methyl-3-morpholinoimidazo[1,2-a]pyrimidin-7-yl)phenyl)pyrrolidine-1-carboxamide], the EC50 was 12.6 to 20 µM in the experiment on Leishmania donovani [1] and 12.6 to 39.8 µM in the experiment on Leishmania donovani [2].

Take `CC(C)c1cnc2nc(-c3cc(NC(=O)N4CCCC4)ccc3F)ccn12` [Example 18, N-(4-fluoro-3-(3-isopropylimidazo[1,2-a]pyrimidin-7-yl)phenyl)pyrrolidine-1-carboxamide]: the EC50 is 0.251 to 10 µM with Leishmania donovani [1] and 0.126 to 10 µM in the experiment with Leishmania donovani [2]. As to `O=C(Nc1ccc(F)c(-c2ccn3c(CN4CCOCC4)cnc3n2)c1)N1CCCC1` [Example 20, N-(4-fluoro-3-(3-(morpholinomethyl)imidazo[1,2-a]pyrimidin-7-yl)phenyl)pyrrolidine-1-carboxamide], the EC50 with Leishmania donovani [1] was 12.6 to 20 µM; in the experiment with Leishmania donovani [2], 0.126 to 10 µM. As to `O=C(Nc1ccc(F)c(-c2ccn3c(-c4ccc(CN5CCOCC5)cc4)cnc3n2)c1)N1CCCC1` [Example 21, N-(4-fluoro-3-(3-(4-(morpholinomethyl)phenyl)imidazo[1,2-a]pyrimidin-7-yl)phenyl)pyrrolidine-1-carboxamide], the EC50 is 0.251 to 10 µM in the experiment on Leishmania donovani [1] and 0.126 to 10 µM in the experiment on Leishmania donovani [2]. In the case of `O=C(Nc1ccc(F)c(-c2ccn3c(N4CCOCC4)cnc3n2)c1)N1CC[C@@H](F)C1` [Example 23, 3-fluoro-N-(4-fluoro-3-(3-morpholinoimidazo[1,2-a]pyrimidin-7-yl)phenyl)pyrrolidine-1-carboxamide], in the experiment with Leishmania donovani [2], the EC50 is 0.126 to 10 µM.

Consider `C[C@H]1CCN(C(=O)Nc2ccc(F)c(-c3ccn4c(N5CCOCC5)cnc4n3)c2)C1` [Example 34a], for which, in the experiment with Leishmania donovani [1], the EC50 was 0.251 to 10 µM.

Consider `O=C(Nc1ccc(F)c(-c2ccn3c(C4COCCN4)cnc3n2)c1)N1CCCC1` (centres unmarked) [Example 38, N-(4-fluoro-3-(3-(morpholin-3-yl)imidazo[1,2-a]pyrimidin-7-yl)phenyl)pyrrolidine-1-carboxamide], for which the EC50 in the experiment with Leishmania donovani [1] was 12.6 to 20 µM.

For `O=C(Nc1ccc(F)c(-c2ccn3c(CC4CCCO4)cnc3n2)c1)N1CCCC1` (centres unmarked) [Example 45, N-(4-fluoro-3-(3-((tetrahydrofuran-2-yl)methyl)imidazo[1,2-a]pyrimidin-7-yl)phenyl)pyrrolidine-1-carboxamide], the EC50 in the experiment on Leishmania donovani [2] was 0.126 to 10 µM.

As to `O=C(Nc1ccc(F)c(-c2ccn3c(N4CCOCC4)cnc3n2)c1)N1CCC1` [Example 51, N-(4-fluoro-3-(3-morpholinoimidazo[1,2-a]pyrimidin-7-yl)phenyl)azetidine-1-carboxamide], in the experiment with Leishmania donovani [2], the EC50 was 0.126 to 10 µM.

On to `O=C1CN(c2cnc3nc(-c4cc(NC(=O)N5CCCC5)ccc4F)ccn23)CCN1` [Example 52, N-(4-fluoro-3-(3-(3-oxopiperazin-1-yl)imidazo[1,2-a]pyrimidin-7-yl)phenyl)pyrrolidine-1-carboxamide], for which the EC50 with Leishmania donovani [1] is > 50.1 µM. As to `N#Cc1ccc(NC(=O)N2CCCC2)cc1-c1ccn2c(N3CCOCC3)cnc2n1` [N-(4-cyano-3-(3-morpholinoimidazo[1,2-a]pyrimidin-7-yl)phenyl)pyrrolidine-1-carboxamide], in the experiment with Leishmania donovani [1], the EC50 is > 50.1 µM. The same measure, in the same setting: the value for `Cc1cc(F)c(-c2ccn3c(N4CCOCC4)cnc3n2)cc1NC(=O)N1CCCC1` [N-(4-fluoro-2-methyl-5-(3-morpholinoimidazo[1,2-a]pyrimidin-7-yl)phenyl)pyrrolidine-1-carboxamide] was > 50.1 µM; that for `CC1(C)CCCN1C(=O)Nc1ccc(F)c(-c2ccn3c(N4CCOCC4)cnc3n2)c1` [N-(4-fluoro-3-(3-morpholinoimidazo[1,2-a]pyrimidin-7-yl)phenyl)-2,2-dimethylpyrrolidine-1-carboxamide] was > 50.1 µM; that for `CC1(C)CN(C(=O)Nc2ccc(F)c(-c3ccn4c(N5CCOCC5)cnc4n3)c2)C1` [N-(4-fluoro-3-(3-morpholinoimidazo[1,2-a]pyrimidin-7-yl)phenyl)-3,3-dimethylazetidine-1-carboxamide] was > 50.1 µM.

With `CC1(C)CCN(C(=O)Nc2ccc(F)c(-c3ccn4c(N5CCOCC5)cnc4n3)c2)C1` [N-(4-fluoro-3-(3-morpholinoimidazo[1,2-a]pyrimidin-7-yl)phenyl)-3,3-dimethylpyrrolidine-1-carboxamide], in the experiment on Leishmania donovani [1], the EC50 was > 50.1 µM.
